Data as given in patent US20210149304A1, “PHOTOSENSITIVE RESIN COMPOSITION, CURED FILM, ELEMENT COMPRISING CURED FILM, ORGANIC EL DISPLAY DEVICE COMPRISING CURED FILM, METHOD FOR PRODUCING CURED FILM, AND METHOD FOR PRODUCING ORGANIC EL DISPLAY DEVICE” (TORAY INDUSTRIES, INC., priority 2017, published 2021).
One block for each compound: values may come before it.

Test: physchem
Procedure: The acid dissociation constant (pKa) is a logarithmic value of the inverse number of the acid dissociation constant pKa in a dilute aqueous solution at 25° C. In cases of multistep dissociation, the dissociation constant in the first step (that is, pKa1) is employed.
In the compound (E2) having a phenolic hydroxyl group indicating an acid dissociation constant pKa of 6.0 to 9.5 at 25° C., the acid dissociation constant (pKa) is a logarithmic value of the inverse number of the acid dissociation constant in a dilute aqueous solution at 25° C. In cases of multistep dissociation, the dissociation constant in the first step (that is, pKa1) is employed. […] The acid dissociation constant pKa is preferably not less than 6.3, more preferably not less than 6.6, still more preferably not less than 7.0.

SMILES: Oc1ccc(C(c2ccc(O)cc2)(C(F)(F)F)C(F)(F)F)cc1 [E(i), bisphenol AF]
- pKa: 8.7
- pKa (acid dissociation constant): 8.7

SMILES: O=S(=O)(c1ccc(O)cc1)c1ccc(O)cc1 [E(ii), bisphenol S]
- pKa (acid dissociation constant) (at 25° C., dilute aqueous solution, first step pKa1): 7.6

SMILES: O=C(c1ccc(O)cc1)c1ccc(O)cc1 [E(iii), 4,4′-dihydroxybenzophenone]
- pKa: 7.7

SMILES: O=C(c1ccccc1O)c1ccccc1O [E(iv), 2,2′-dihydroxybenzophenone]
- pKa: 7.3

SMILES: Oc1ccc(C(F)(F)F)cc1 [E(v), 4-(trifluoromethyl)phenol]
- pKa: 8.5

SMILES: CC(c1ccc(O)cc1)(c1ccc(O)cc1)c1ccc(O)cc1 [E(vi), 1,1,1-tris(4-hydroxyphenyl)ethane]
- pKa: 10

More lines, now with the values ahead:

- pKa: 11.6
SMILES: Cc1cc(O)c(C(C)(C)C)cc1C(C)CC(c1cc(C(C)(C)C)c(O)cc1C)c1cc(C(C)(C)C)c(O)cc1C (stereo not drawn) [AO-30, 1,1,3-tris(2-methyl-4-hydroxy-5-tert-butylphenyl)butane]

- pKa: 12
SMILES: Cc1cc(CCC(=O)OCC(C)(C)C2OCC3(CO2)COC(C(C)(C)COC(=O)CCc2cc(C)c(O)c(C(C)(C)C)c2)OC3)cc(C(C)(C)C)c1O (stereo not drawn) [AO-80, 3,9-bis[1,1-dimethyl-2-[(3-tert-butyl-4-hydroxy-5-methylphenyl)propionyloxy]ethyl]-2,4,8,10-tetraoxaspiro[5.5]undecane]
